US20050176804A1, “Method and material for free radical scavenging in human tissue” (priority 2003, published 2005)

What was measured:
[1] = tested on: cultured human skin fibroblasts; assay: RNS suppression, total nitrate plus nitrite (Nox) generation, Greiss assay; assay type: cell-based; details: 60 μg/ml
Description: In addition to ROS activity, indoleacetyl phenylalanine was also tested against radical nitrogen species (RNS) in cultured human skin fibroblasts. To estimate suppression of RNS, total nitrate plus nitrite (Nox) generation was measured using the Greiss assay method. At a concentration of 60 μg/ml, indoleacetyl phenylalanine decreased RNS generation by 33% as compared to an untreated control.

[2] = tested on: skin fibroblasts; assay: Cell viability of skin fibroblasts during ROS test; assay type: cell-based, human
Description: (§1) Positive results were obtained with fibroblasts incubated in both serum-containing and serum-free media (serum proteins, e.g., albumin, can act as antioxidants and skew test results).

[3] = tested on: fibroblasts; assay: Cell proliferation / cell viability, MTT method; assay type: cell-based
Description: Furthermore, to investigate the effects of indole derivatives on cell proliferation as a biological marker, cell viability was assayed using the MTT method.

[4] = tested on: nitric oxide synthase (iNOS); assay: iNOS suppression, native and activated states; assay type: cell-based; details: 3-12 μM
From the text: Following previous leads on indoleacetyl phenylalanine's finding as a potent anti-free radical substance, additional experimental evidence was sought to strengthen the earlier findings. Focus at this time was placed on nitric oxide synthase (iNOS), which is the key enzyme for generating a destructive oxidant, nitric oxide. Since this enzyme existed in native and activated states, it was pertinent to check both the enzyme activities to ascertain the inhibitory action of indoleacetyl phenylalanine.

[5] = tested on: Cu/ZnSOD; assay: Cu/ZnSOD gene expression by Western blotting; assay type: cell-based; details: 15 and 30 μM; human skin fibroblasts
Description: (§2) The antioxidant effects of indoleacetyl phenylalanine was also tested with respect to the production of antioxidant enzymes by means of differential gene expression in human skin fibroblasts. The experiment was conducted with respect to gene expression related to two major defense enzymes, Superoxide Dismutase (SOD) and catalase. […] Gene expression for both enzymes was stimulated at indoleacetyl phenylalanine concentrations of 15 and 30 μM.

[6] = target: T1, fibroblast COX-2 enzymes (Homo sapiens, UniProt P35354); assay: Inhibition of fibroblast COX-2 enzymes; assay type: cell-based
T1 construct: endogenous in cells
T1 sequence (P35354 18-604): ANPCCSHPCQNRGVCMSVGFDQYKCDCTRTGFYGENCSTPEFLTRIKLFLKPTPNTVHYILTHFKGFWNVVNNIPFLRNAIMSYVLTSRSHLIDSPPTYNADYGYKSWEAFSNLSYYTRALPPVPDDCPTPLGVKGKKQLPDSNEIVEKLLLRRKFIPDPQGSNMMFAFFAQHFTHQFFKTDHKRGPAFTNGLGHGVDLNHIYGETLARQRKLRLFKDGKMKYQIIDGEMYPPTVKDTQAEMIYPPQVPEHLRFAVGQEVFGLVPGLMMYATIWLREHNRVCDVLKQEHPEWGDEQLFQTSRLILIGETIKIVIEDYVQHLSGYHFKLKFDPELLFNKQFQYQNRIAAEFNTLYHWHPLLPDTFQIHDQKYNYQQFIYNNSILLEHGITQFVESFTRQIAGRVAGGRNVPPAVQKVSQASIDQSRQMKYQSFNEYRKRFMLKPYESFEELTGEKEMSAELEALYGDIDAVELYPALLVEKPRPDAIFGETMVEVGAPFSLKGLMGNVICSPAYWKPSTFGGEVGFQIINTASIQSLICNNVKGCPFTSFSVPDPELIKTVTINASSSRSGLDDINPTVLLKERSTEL

[7] = tested on: skin fibroblasts; assay: t-butyl hydroperoxide (t-BHP) induced ROS activity; assay type: cell-based, human; details: serum-free media
Description: (§3) The anti-oxidative action of indoleacetyl phenylalanine was tested against reactive oxygen species (ROS) using human skin fibroblast cultures. Total ROS generation in skin fibroblasts was measured using the fluorescent dye dichlorofluorescin diacetate (DCFDA) as a probe. DCFDA readily diffuses through cell membranes and is enzymatically hydrolyzed by intracellular esterase to become non-fluorescent dichlorofluorescin (DCFH), which is then oxidized by reactive species (oxidants) to highly fluorescent […] (DCF). Increased antioxidant activity within a cell is marked by a reduction in the fluorescent DCF.

[8] = tested on: catalase; assay: Catalase gene expression by Western blotting; assay type: cell-based; details: 15 and 30 μM, particularly increased at 30 μM; human skin fibroblasts
Description: as §2

[9] = tested on: human skin fibroblast cultures; assay: Total ROS generation in skin fibroblasts, DCFDA fluorescent probe; assay type: cell-based
Description: as §3, §1

In the case of `O=C(Cc1c[nH]c2ccccc12)N[C@@H](Cc1ccccc1)C(=O)O` [indoleacetyl phenylalanine], the “decrease of RNS generation compared to untreated control” value [1] is reported as 33%, the “effect on cell viability” value [2] is reported as “without affecting cell viability” and the “stimulation of cell proliferation compared to untreated controls” value ([3]; MTT method) is reported as 30%. For the same molecule, the “lowest concentration giving dose-dependent fibroblast proliferation” value ([3]; four-day incubation period) was 2 µM, the “suppression of iNOS, native state” value [4] was “suppressed iNOS” and the “suppression of iNOS gene expression activity, activated state” value ([4]; activated by 5 μM t-BHP) was “able to suppress iNOS gene expression activity”. For the same molecule, the “gene expression for production of Cu/ZnSOD (protein amount)” value [5] was “increased gene expression”, the “anti-inflammatory effect, COX-2 inhibition” value [6] was “inhibition of fibroblast COX-2 enzymes” and the “antioxidant activity against t-BHP induced ROS activity” value [7] was “showed antioxidant activity”. For the same molecule, the “gene expression for production of catalase (protein amount)” value [8] was “increased gene expression”, the “antioxidant activity toward ROS generation” value ([9]; 10% serum media, 15, 30, and 60 μM) was “significant antioxidant activity” and the “antioxidant activity toward ROS generation” value ([9]; serum-free media, 7.5, 15, and 30 μM) was “exhibited antioxidant activity”.
